The subject of one assay is TFEB. The experiment in a line: TFEB nuclear translocation assay. Type of assay: cell-based. Conditions: Homo sapiens; HeLa wt or HeLa TRPML1 KO cells, treated for 2 hrs; ratio of nuclear to ring-region TFEB intensity. The method, boiled down: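 HeLa wild-type or TRPML1 KO cells treated 2 h with compound at 37 °C, PFA-fixed, immunostained for TFEB (Alexa 488) with Hoechst nuclei. Imaged at ×20, four fields/well. Value is ratio of nuclear to perinuclear-ring TFEB intensity, with nuclei counts.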

For the next assay, the system named is THP-1 cells. Description: Lamp1 lysosomal exocytosis assay. Type of assay: cell-based. Conditions: Homo sapiens, 55 min, 55 min incubation, top dose 20 μM. An outline of the steps:
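THP-1 cells (1e5/well) exposed to a 7-point 3-fold compound series, top final 20 μM, for 55 min at 37°C. Surface Lamp1 then stained with Lamp1-PE on ice in buffer containing 80 μM Dynasore, and read by flow cytometry as PE geometric mean on live, sytox-negative singlets.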

pEC50: −log10 of the molar value.

By pEC50 is commonly meant −log10 of the EC50, conventionally taken in molar units.

In the case of `CN(C)S(=O)(=O)c1ccc(S(=O)(=O)N2CC3(CCCC3)Oc3ccccc32)cc1` [Compound I-116, 4-((3,4-dihydrospiro[1,4-benzoxazine-2,1′-cyclopentan]-4-yl}sulfonyl)-N,N-dimethylbenzene-1-sulfonamide], the values for the pEC50 in the assay with TFEB and with THP-1 cells were no less than 5.70 and no more than 5.30, respectively.
In the same order, the values of `CN(C)S(=O)(=O)c1ccc(S(=O)(=O)N2CC3(CCN(C(=O)C(C)(C)C)CC3)c3ccccc32)cc1` [Compound I-118, 4-{[1′-(2,2-dimethylpropanoyl)-1,2-dihydrospiro[indole-3,4′-piperidin]-1-yl]sulfonyl}-N,N-dimethylbenzene-1-sulfonamide] are no less than 5.70 and 5.30 to 6.00.
On the same counts, the results for `COC1CCC2(CC1)CN(S(=O)(=O)c1ccc(S(=O)(=O)N(C)C)cc1)c1ccccc12` (stereo not shown) [Compound I-119, 4-({4-methoxy-1′,2′-dihydrospiro[cyclohexane-1,3′-indol]-1′-yl}sulfonyl)-N,N-dimethylbenzene-1-sulfonamide] are no less than 5.70 and 5.30 to 6.00.
Take `CC(F)(F)CN1CCC2(CC1)CN(S(=O)(=O)c1ccc(C(F)F)cc1)c1ccccc12` [Compound I-122, 1-((4-(difluoromethyl)phenyl)sulfonyl)-1′-(2,2-difluoropropyl)spiro[indoline-3,4′-piperidine]]: the pEC50 in the assay with TFEB was no less than 5.70; in the assay on THP-1 cells it was no more than 5.30.
On the same counts, the results for `CN(C)S(=O)(=O)c1ccc(S(=O)(=O)N2CC3(CCCC3)n3nccc32)cc1` [Compound I-124, 4-({1′,2′-dihydrospiro[cyclopentane-1,3′-pyrazolo[1,5-a]imidazol]-1′-yl}sulfonyl)-N,N-dimethylbenzene-1-sulfonamide] are no more than 5.00 and no more than 5.30.
On the same counts, the results for `CN(C)S(=O)(=O)c1ccc(S(=O)(=O)N2CCC3(CCN(CC(F)(F)F)CC3)c3ccccc32)cc1` [Compound I-126, N,N-dimethyl-4-((1-(2,2,2-trifluoroethyl)-2′,3′-dihydro-1′H-spiro[piperidine-4,4′-quinolin]-1′-yl)sulfonyl)benzenesulfonamide] are no less than 5.70 and no more than 5.30.
With `CN(C)S(=O)(=O)c1ccc(S(=O)(=O)N2CC3(CCCC3)c3ccncc32)cc1` [Compound I-127, 4-({1′,2′-dihydrospiro[cyclopentane-1,3′-pyrrolo[2,3-c]pyridin]-1′-yl}sulfonyl)-N,N-dimethylbenzene-1-sulfonamide], the figures for the pEC50 with TFEB and with THP-1 cells were 5.10 to 5.70 and 5.30 to 6.00, respectively.
On to `CN(C)S(=N)(=O)c1ccc(S(=O)(=O)N2CC3(CCCCC3)c3ccccc32)cc1` (stereo not shown) [Compound I-129, N,N-dimethyl-4-(spiro[cyclohexane-1,3′-indolin]-1′-ylsulfonyl)benzenesulfonimidamide], for which the pEC50 is no less than 5.70 in the assay with TFEB and 6.00 to 6.29 with THP-1 cells.
In the same order, the values of `O=C(OCc1ccccc1)N1CCC2(CC1)CN(S(=O)(=O)c1ccc(C(F)F)cc1)c1cccc(F)c12` [Compound I-130, benzyl 1-[4-(difluoromethyl)benzenesulfonyl]-4-fluoro-1,2-dihydrospiro[indole-3,4′-piperidine]-1′-carboxylate] are no less than 5.70 and no less than 6.30.
In the same order, the values of `O=C(OCc1ccccc1)N1CCC2(CC1)CN(S(=O)(=O)c1ccc(C(F)F)cc1)c1cc(F)ccc12` [Compound I-131, benzyl 1-((4-(difluoromethyl)phenyl)sulfonyl)-6-fluorospiro[indoline-3,4′-piperidine]-1′-carboxylate] are no less than 5.70 and no more than 5.30.
In the same order, the values of `O=C(OCc1ccccc1)N1CCC2(CC1)CN(S(=O)(=O)c1ccc(C(F)F)cc1)c1ccc(F)cc12` [Compound I-132] are no less than 5.70 and no more than 5.30.
In the case of `O=C(OCc1ccccc1)N1CCC2(CC1)CN(S(=O)(=O)c1ccc(C(F)F)cc1)c1c(F)cccc12` [Compound I-133, benzyl 1-((4-(difluoromethyl)phenyl)sulfonyl)-7-fluorospiro[indoline-3,4′-piperidine]-1′-carboxylate], the results for the pEC50 in the assay with TFEB and in the assay with THP-1 cells were no less than 5.70 and no more than 5.30, respectively.
On the same counts, the results for `O=C(OCc1ccccc1)N1CCC2(CC1)CN(S(=O)(=O)c1ccc(C(F)F)cc1)c1cccnc12` [Compound I-134, benzyl 1′-[4-(difluoromethyl)benzenesulfonyl]-1′,2′-dihydrospiro[piperidine-4,3′-pyrrolo[3,2-b]pyridine]-1-carboxylate] are no less than 5.70 and no less than 6.30.
In the same order, the values of `CCOC[C@]1(C)CC[C@]2(CC1)CN(S(=O)(=O)c1ccc(C(F)F)cc1)c1ccccc12` [Compound I-137, (1r,4r)-1′-[4-(difluoromethyl)benzenesulfonyl]-4-(ethoxymethyl)-4-methyl-1′,2′-dihydrospiro[cyclohexane-1,3′-indole]] are no less than 5.70 and no less than 6.30.
Regarding `O=C(OCc1ccccc1)N1CCC2(CC1)CN(S(=O)(=O)c1ccc(C(F)(F)C3CC3)cc1)c1ccccc12` [Compound I-139, benzyl 1-((4-(cyclopropyldifluoromethyl)phenyl)sulfonyl)spiro[indoline-3,4′-piperidine]-1′-carboxylate], the negative-log EC50 (pEC50) is no less than 5.70 in the assay with TFEB and no less than 6.30 in the assay with THP-1 cells.
Regarding `CN(C)S(=O)(=O)c1ccc(S(=O)(=O)N2CC3(CCN(C(=O)OCC4CC4)CC3)n3nccc32)cc1` [Compound I-145, cyclopropylmethyl 1′-[4-(dimethylsulfamoyl)benzenesulfonyl]-1′,2′-dihydrospiro[piperidine-4,3′-pyrazolo[1,5-a]imidazole]-1-carboxylate], the pEC50 is no more than 5.00 with TFEB and no more than 5.30 with THP-1 cells.
On the same counts, the results for `Cc1cc2n(n1)C1(CCCCC1)CN2S(=O)(=O)c1ccc(C(F)F)cc1` [Compound I-148, 1′-[4-(difluoromethyl)benzenesulfonyl]-6′-methyl-1′,2′-dihydrospiro[cyclohexane-1,3′-pyrazolo[1,5-a]imidazole]] are no more than 5.00 and no more than 5.30.
In the same order, the values of `Cc1ccc2c(c1)N(S(=O)(=O)c1ccc(S(=N)(=O)N(C)C)cc1)CC21CCCCC1` (stereo not shown) [Compound I-149, N,N-dimethyl-4-({6′-methyl-1′,2′-dihydrospiro[cyclohexane-1,3′-indol]-1′-yl}sulfonyl)benzene-1-sulfonoimidamide] are no less than 5.70 and no less than 6.30.
For `Cc1nn2c(c1C)N(S(=O)(=O)c1ccc(S(=O)(=O)N(C)C)cc1)CC21CCCCC1` [Compound I-154, 4-({6′,7′-dimethyl-1′,2′-dihydrospiro[cyclohexane-1,3′-pyrazolo[1,5-a]imidazol]-1′-yl}sulfonyl)-N,N-dimethylbenzene-1-sulfonamide], the values for the pEC50 in the assay on TFEB and in the assay with THP-1 cells were no more than 5.00 and no more than 5.30, respectively.
`Cc1cnc2c(c1)N(S(=O)(=O)c1ccc(S(=N)(=O)N(C)C)cc1)CC21CCCCC1` (stereo not shown) [Compound I-157, N,N-dimethyl-4-({6′-methyl-1′,2′-dihydrospiro[cyclohexane-1,3′-pyrrolo[3,2-b]pyridin]-1′-yl}sulfonyl)benzene-1-sulfonoimidamide]: the pEC50 was no less than 5.70 with TFEB and no more than 5.30 in the assay on THP-1 cells.

The record behind these values is patent publication US20230416262A1, “TRPML MODULATORS” (Casma Therapeutics, Inc., priority 2020, published 2023).
